Assay [1] has as its target type PO SadP-6407(31-328). The conditions noted are these: PBS, 25 °C.
Assay [2] addresses T1, type PN SadP-D282(31-328) (Streptococcus suis, UniProt G5DSS1).
T1 sequence (G5DSS1 31-328): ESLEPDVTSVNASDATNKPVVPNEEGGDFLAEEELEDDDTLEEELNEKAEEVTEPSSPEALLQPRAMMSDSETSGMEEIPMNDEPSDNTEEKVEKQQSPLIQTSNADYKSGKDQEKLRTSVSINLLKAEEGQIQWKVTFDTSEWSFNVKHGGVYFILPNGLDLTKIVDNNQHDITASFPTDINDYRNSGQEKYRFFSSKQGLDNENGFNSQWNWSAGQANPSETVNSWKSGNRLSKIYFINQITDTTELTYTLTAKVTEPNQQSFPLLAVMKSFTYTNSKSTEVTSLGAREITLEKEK
The note with it: PBS, 25 °C; n=1.14.

Assay [3] addresses T2, type PN SadP(125-329) (Streptococcus suis, UniProt G5DSS1).
T2 sequence (G5DSS1 125-329): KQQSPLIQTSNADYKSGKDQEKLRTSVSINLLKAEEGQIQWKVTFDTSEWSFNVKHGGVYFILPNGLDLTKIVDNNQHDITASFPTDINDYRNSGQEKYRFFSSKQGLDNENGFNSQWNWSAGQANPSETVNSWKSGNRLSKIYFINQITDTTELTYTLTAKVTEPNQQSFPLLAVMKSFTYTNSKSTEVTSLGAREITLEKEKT
Kind of assay: biochemical.

Assay [4] has as its target type PN SadP(125-329) (Streptococcus suis, UniProt G5DSS1, N271D). The experiment in a line: biochemical.

Where two headings read alike, the source gives them in different places.

The record followed here is doi:10.1101/2020.05.29.122762v3 (biorxiv, 2020).

By Kd is commonly meant the equilibrium constant for the complex coming apart. Low readings indicate tighter binding, high ones weaker binding.

As for `CC(=O)N[C@H]1[C@H](O[C@H]2[C@@H](O)[C@@H](CO)O[C@H](O[C@@H]3[C@H](O)[C@@H](O)[C@H](OCC[Si](C)(C)C)O[C@@H]3CO)[C@@H]2O)O[C@H](CO)[C@H](O)[C@@H]1O` [GalNAcβ1–3Galα1–4Gal TMSEt glycoside], the Kd was determined as 940 ± 680 µM in assay [1] (n=0.13, poorly defined fit); 33.7 ± 3.5 µM in assay [2]; 36 ± 4.8 µM on type PN SadP(125-329) [3].
`C[Si](C)(C)CCO[C@@H]1O[C@H](CO)[C@H](O[C@H]2O[C@H](CO)[C@H](O)[C@H](O)[C@H]2O)[C@H](O)[C@H]1O` [Galα1–4Gal TMSEt glycoside]: the Kd in assay [1] (n=0.85) stood at 3.5 ± 1.6 µM; on type PN SadP(125-329) [4] it was 22.7 ± 7.2 µM.
